# Measured values taken from US10874743B2, “IRAK degraders and uses thereof” (Kymera Therapeutics, Inc., priority 2017, dated 2020).
# Molecular target: T1, IRAK4 (Homo sapiens, UniProt Q9NWZ3)
# T1 sequence (Q9NWZ3 1-460): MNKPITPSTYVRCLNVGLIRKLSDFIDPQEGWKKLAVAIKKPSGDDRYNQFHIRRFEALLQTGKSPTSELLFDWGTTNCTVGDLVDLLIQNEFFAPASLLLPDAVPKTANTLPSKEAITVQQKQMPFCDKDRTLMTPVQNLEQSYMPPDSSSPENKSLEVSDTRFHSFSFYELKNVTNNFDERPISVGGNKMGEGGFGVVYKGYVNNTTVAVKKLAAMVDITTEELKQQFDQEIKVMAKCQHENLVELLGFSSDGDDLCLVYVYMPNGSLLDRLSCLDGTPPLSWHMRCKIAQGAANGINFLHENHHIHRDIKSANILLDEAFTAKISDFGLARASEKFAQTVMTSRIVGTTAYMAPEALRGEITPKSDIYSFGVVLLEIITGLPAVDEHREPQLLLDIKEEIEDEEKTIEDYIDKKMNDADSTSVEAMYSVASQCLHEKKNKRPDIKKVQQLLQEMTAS
# Assay: OCI-LY-10 degradation assay (western blot, % IRAK4 degraded after 4 hours)
# Format: cell-based
# Set-up: endogenous in cells; host or cells: OCI-LY10
# Conditions: OCI-LY10 cells; for OCI-LY10 % IRAK4 Degradation (0.01 uM) / OCI-LY10 % IRAK4 Degradation (0.1 uM) / OCI-LY10 % IRAK4 Degradation (1 uM): 4 hours; for OCI-LY10 % IRAK4 Degradation (0.01 uM): 0.01 uM compound; for OCI-LY10 % IRAK4 Degradation (0.1 uM): 0.1 uM compound; for OCI-LY10 % IRAK4 Degradation (1 uM): 1 uM compound; for OCI-LY10 % IRAK4 Degradation: IRAK4 degraded after 4 hours, western blot
# Experimental: Compounds were reconstituted in DMSO to make stock solutions at concentration of 60 mM. THP-1 and OCI-LY10 cells were maintained in RPMI-1640 medium containing 10% FBS, 0.5 μM 2-ME or 20% FBS, 55 μM 2-ME, and 1% L-Glutamine respectively.
# Cells were seeded into 6-well plates with 5e6 cells per well. 200 μL of diluted compounds were added to cells to the final concentration of 0.003-10 μM. After 4 or 24 hour-incubation at 37° C., cells were collected into 2 mL Eppendorf tubes and centrifuged at 1,000 rpm for 5 min. The cell pellets were washed with 1×DPBS once and resuspended in 60 μL lysis buffer. The cells were lysed on ice for 10 min, then centrifuged at 14,000 rpm for 10 min at 4° C. and the supernatants were collected for western blots. For THP-1 cells, the lysis buffer contained 40 mM pH 7.4 HEPES, 140 mM NaCl, 2.5 mM EDTA, 1% NP-40, 0.1% SDS, and protease inhibitor cocktail (Roche, Cat. No. 05892791001). For OCI-LY10 cells, RIPAbuffer (Thermo Fisher, 89900) with Halt Protease and Phosphatase Inhibitor Cocktail (Thermo Fisher, 78446) was applied.
# The protein concentration of cell lysates was quantified with Pierce™ BCA Protein Assay Kit (Pierce, 23227). Albumin standards at different concentrations were prepared, involving 2,000 ug/mL, 1,500 ug/mL, 1,000 ug/mL, 750 ug/mL, 500 ug/mL, 250 ug/mL, 125 ug/mL, and 25 ug/mL. BCA working reagents were prepared by mixing BCA reagent A with reagent B in 50:1 ratio. 200 μL of the BCA working reagents were added to 25 μL of BCA standard or cell lysates in microplate, and mixed thoroughly on a plate shaker for 30 seconds. After incubation at 37° C. for 30 min, the absorbance of samples at 562 nm were measured with EnVision Plate Reader.
# Protein lysates were prepared in NuPAGE™ LDS sample buffer and NuPAGE™ sample reducing agent, and incubated at 95° C. for 5 min. For western blots, 20-25 μg of total proteins were resolved in 4-12% Bis-Tris gels (Introgen, WG1403A) or 10% Bis-Tris Midi gels (Invitrogen, WG1202BOX) running with 1×MOPS SDS running buffer (Invitrogen, NP0001) or 1×MES SDS running buffer (Invitrogen, NP0002). The proteins were transferred to low fluorescence PVDF membranes using the Trans-Blot Turbo Transfer System. Membranes were then blocked in Odyssey blocking buffer at RT for 1 h followed by primary incubation at 4° C. overnight. The primary antibodies were IRAK1 rabbit monoclonal antibody (CST, #4504S, 1:500), IRAK3 rabbit polyclonal antibody (CST, #4369, 1:500), IRAK4 rabbit polyclonal antibody (CST, #4363S, 1:1,000), MyD88 rabbit monoclonal antibody (Abcam, Ab133739, 1:2,000), j3-actin mouse monoclonal antibody (Sigma, A5441, 10,000), and Gapdh mouse monoclonal antibody (Millipore, MAB374, 1:5,000). Membranes were washed three times with 1×TBST, and then incubated with IR Dye 800 CW Goat anti-rabbit (Licor, #926-32211) and IR Dye 700 CW Goat anti-mouse (Licor, #926-68070) secondary antibodies in 1:10,000 dilution at RT for 1 h. The western blot images were obtained using Odyssey Imaging System.
# OCI-LY-10 results at 4 hours. The letter codes indicate the percentage of IRAK4 degraded after 4 hours: A (>50% degradation), B (>20-50% degradation) and C (<20% degradation)
# OCI-LY-10 results at 4 hours. The letter codes for % IRAK4 degradation indicate the percentage of IRAK4 degraded after 4 hours across three different concentrations: A (>50% degradation), B (>20-50% degradation) and C (<20% degradation).
OCI-LY10 % IRAK4 Degradation (0.01 uM),OCI-LY10 % IRAK4 Degradation (0.1 uM),OCI-LY10 % IRAK4 Degradation (1 uM),OCI-LY10 % IRAK4 Degradation,SMILES
C (<20% degradation),C (<20% degradation),A (>50% degradation),,CN(CCNCCCc1ccc2c(c1)C(=O)N(C1CCC(=O)NC1=O)C2=O)C(=O)c1ccc(-n2cc(NC(=O)c3coc(-c4ccncc4)n3)c(C(F)F)n2)cc1 (stereo not shown) [I-378]
,,,C (<20% degradation),N#Cc1cnc2c(cnn2-c2cc(NC3CC3)c(C(=O)N[C@H]3CC[C@H](COCCOCCOCCNc4cccc5c4C(=O)N(C4CCC(=O)NC4=O)C5=O)CC3)cn2)c1 (stereo partly shown) [I-32]
,,,C (<20% degradation),"N#Cc1cnc2c(cnn2-c2cc(NC3CC3)c(C(=O)N[C@H]3CC[C@H](C(=O)NCCOCCOCCOCCOCCNc4cccc5c4C(=O)N(C4CCC(=O)NC4=O)C5=O)CC3)cn2)c1 (stereo partly shown) [I-22, 6-(5-cyano-1H-pyrazolo[3,4-b]pyridin-1-yl)-4-(cyclopropylamino)-N-((1r,4r)-4-((14-((2-(2,6-dioxopiperidin-3-yl)-1,3-dioxoisoindolin-4-yl)amino)-3,6,9,12-tetraoxatetradecyl)carbamoyl)cyclohexyl)nicotinamide]"
C (<20% degradation),C (<20% degradation),A (>50% degradation),,O=C1CCC(N2C(=O)c3cccc(NCCOCCN4CCN(CCOCCNCc5ccc(-n6cc(NC(=O)c7coc(-c8ccnc(NCC9CC9)c8)n7)c(C(F)F)n6)cc5)CC4)c3C2=O)C(=O)N1 (stereo not shown) [I-348]
B (>20-50% degradation),B (>20-50% degradation),B (>20-50% degradation),,CN(CCCCCCCCCc1cccc2c1C(=O)N(C1CCC(=O)NC1=O)C2=O)Cc1ccc(-n2cc(NC(=O)c3coc(-c4ccnc(NCC5CC5)c4)n3)c(C(N)=O)n2)cc1 (stereo not shown) [I-316]
C (<20% degradation),A (>50% degradation),A (>50% degradation),,NC(=O)c1nn(-c2ccc(CNCCCCCOCCCc3cccc4c3C(=O)N(C3CCC(=O)NC3=O)C4=O)cc2)cc1NC(=O)c1coc(-c2ccnc(NCC3CC3)c2)n1 (stereo not shown) [I-311]
,,,B (>20-50% degradation),NC(=O)c1nn(-c2ccc(C(=O)NCCOCCOCCNc3cccc4c3C(=O)N(C3CCC(=O)NC3=O)C4=O)nc2)cc1NC(=O)c1coc(-c2ccnc(NCC(F)(F)F)c2)n1 (stereo not shown) [I-143]
B (>20-50% degradation),B (>20-50% degradation),A (>50% degradation),,O=C1CCC(N2C(=O)c3cccc(CCCOCCNCc4ccc(-n5cc(NC(=O)c6coc(-c7ccnc(NCC8CC8)c7)n6)c(C(F)F)n5)cc4)c3C2=O)C(=O)N1 (stereo not shown) [I-367]
C (<20% degradation),C (<20% degradation),C (<20% degradation),,O=C1CCC(N2C(=O)c3ccc(CCCN4CCC(n5cc(NC(=O)c6coc(-c7ccnc(NCC8CC8)c7)n6)c(C(F)F)n5)CC4)cc3C2=O)C(=O)N1 (stereo not shown) [I-264]
C (<20% degradation),C (<20% degradation),C (<20% degradation),,O=C1CCC(N2C(=O)c3cccc(CNCc4ccc(-n5cc(NC(=O)c6coc(-c7ccncc7)n6)c(C(F)F)n5)cc4)c3C2=O)C(=O)N1 (stereo not shown) [I-359]
B (>20-50% degradation),A (>50% degradation),A (>50% degradation),,CN(CCOCCCc1ccc2c(c1)C(=O)N(C1CCC(=O)NC1=O)C2=O)Cc1ccc(-n2cc(NC(=O)c3coc(-c4ccnc(NCC5CC5)c4)n3)c(C(F)F)n2)cc1 (stereo not shown) [I-376]
,,,C (<20% degradation),O=C1CCC(N2C(=O)c3cccc(NCCOCC(F)CNC(=O)c4cnc(Nc5ccc6cnccc6n5)cc4NC4CC4)c3C2=O)C(=O)N1 (stereo not shown) [I-81]
B (>20-50% degradation),A (>50% degradation),A (>50% degradation),,O=C1CCC(N2C(=O)c3cccc(NCCOCCOCCOCCOCCNC(=O)c4ccc(-n5cc(NC(=O)c6coc(-c7ccnc(NCC8CC8)c7)n6)c(C(F)F)n5)cc4)c3C2=O)C(=O)N1 (stereo not shown) [I-212]
,,,B (>20-50% degradation),Cc1ncsc1-c1ccc(CNC(=O)[C@@H]2C[C@@H](O)CN2C(=O)[C@@H](NC(=O)COCCOCCOCCNC(=O)c2ccc(-n3cc(NC(=O)c4coc(-c5ccnc(NCC(F)(F)F)c5)n4)c(C(N)=O)n3)cc2)C(C)(C)C)cc1 [I-115]
,,,C (<20% degradation),CC(C)(OCCOCCNc1cccc2c1C(=O)N(C1CCC(=O)NC1=O)C2=O)C(F)CNC(=O)c1cnc(-n2ncc3cc(C#N)cnc32)cc1NC1CC1 (stereo not shown) [I-79]
C (<20% degradation),A (>50% degradation),A (>50% degradation),,O=C1CCC(N2C(=O)c3cccc(NCc4cn(CCOCCOCCNCc5ccc(-n6cc(NC(=O)c7coc(-c8ccnc(NCC9CC9)c8)n7)c(C(F)F)n6)cc5)nn4)c3C2=O)C(=O)N1 (stereo not shown) [I-340]
,,,C (<20% degradation),N#Cc1cnc2c(cnn2-c2cc(NC3CC3)c(C(=O)NCC(F)CCOCCOCCOCCNc3cccc4c3C(=O)N(C3CCC(=O)NC3=O)C4=O)cn2)c1 (stereo not shown) [I-88]
,,,C (<20% degradation),Cc1ccc(NS(=O)(=O)c2ccc(CNC(=O)COCCOCCOCCOCCNC(=O)c3ccc(-n4cc(NC(=O)c5coc(-c6ccnc(NCC(F)(F)F)c6)n5)c(C(N)=O)n4)cc3)cc2)c2[nH]cc(C#N)c12 [I-113]
,,,C (<20% degradation),CC(OCCOCCOCCOCCOCCNc1cccc2c1C(=O)N(C1CCC(=O)NC1=O)C2=O)C(F)CNC(=O)c1cnc(-n2ncc3cc(C#N)cnc32)cc1NC1CC1 (stereo not shown) [I-66]
C (<20% degradation),A (>50% degradation),A (>50% degradation),,O=C1CCC(N2C(=O)c3ccc(OCCc4cnnn4CCOCCOCCNCc4ccc(-n5cc(NC(=O)c6coc(-c7ccnc(NCC8CC8)c7)n6)c(C(F)F)n5)cc4)cc3C2=O)C(=O)N1 (stereo not shown) [I-347]
C (<20% degradation),C (<20% degradation),C (<20% degradation),,NC(=O)c1nn(-c2ccc(CNCCCc3cccc4c3C(=O)N(C3CCC(=O)NC3=O)C4=O)cc2)cc1NC(=O)c1coc(-c2ccncc2)n1 (stereo not shown) [I-358]
,,,C (<20% degradation),N#Cc1cnc2c(cnn2-c2cc(NC3CC3)c(C(=O)NCC(F)COCCCCCNC(=O)COc3cccc4c3C(=O)N(C3CCC(=O)NC3=O)C4=O)cn2)c1 (stereo not shown) [I-102]
